Values after ≈ are worked out from the molar mass of the structure shown.

The test has as its target T1, mushroom tyrosinase.
T1 construct: gene PPO3
The test is described as follows: L-DOPA oxidation, absorbance at […] nm after […] min. The class given is biochemical. The note with it: 0.1 M L-DOPA solution (300 µL in 610 µL assay), 0.05 M phosphate pH 6.8, room temperature, 10 min preincubation.

On to `C[C@@H]1O[C@@H](OC[C@H]2O[C@@H](Oc3c(-c4ccc(O)c(O)c4)oc4cc(O)cc(O)c4c3=O)[C@H](O)[C@@H](O)[C@@H]2O)[C@H](O)[C@H](O)[C@H]1O` [rutin], for which the IC50 (usually the concentration that gives 50% inhibition) is reported as 5.38 µg/mL (≈ 8.81 µM).

Values taken from paper PMC11429051, “The Effect of Maturity Stage on Polyphenolic Composition, Antioxidant and Anti-Tyrosinase Activities of Ficus rubiginosa Desf. ex Vent. Extracts” (Antioxidants, 2024).
